Data set [1] deals with isolated aorta. Briefly: Experiment 3 Relaxing activity on the isolated aorta (30 mM KCl contracted). More on the design: species or system Japanese white rabbit. The note with it: for EC50: Oryctolagus cuniculus, 30 mM KCl contraction, maximum relaxation by papaverine = 100%, read-out: EC50 (concentration for 50% relaxation); for relaxing / vasodilating activity on isolated aorta (in words): Table 8, comparison with nifedipine and nicardipine hydrochloride, etc. where stated.
Description: Japanese white rabbit (weighing 2.3-2.7 kg) was sacrificed by bleeding from common carotid artery. Immediately, the aorta was isolated and cut into a sprial strip. The strip preparation was vertically suspended under a resting tension of 2.0 g in a tissue bath containing 20 ml of modified Ringer solution while bubbling with a mixture of 95% O2 +5% CO2 by connecting one end of the strip to a lever of the above-mentioned FD pick up. The aortic strip was contracted with 30 mM KCl. When the contraction became constant, the test compound was accumulatively administered, and the relaxing effect was measured. After the final treatment, 10^-4T M papaverine was administered and the maximum relaxation obtained thereby was taken as 100%. In comparison with the maximum relaxation obtained by papaverine, the rate of relaxation by the test compounds was evaluated, and the concentration of the test compounds for obtaining 50% relaxation (EC50) was calculated.
The test compound was dissolved in ethanol, and the solution was diluted in 100 to 1×10^4 folds with a nutrient solution, and the diluted solution was administered.

The nature of data set [2]: Experiment 4-1 Acute toxicity. The note with it: rat, in vivo; oral, male rats, 5 week age, 7 days. The text has this: Wistar male rats (5 week age, weighing 105-135 g) were used. The compounds of Example Nos. 2, 3 and 7 were each orally administered to the animals in the form of a suspension in 0.5% methyl cellulose solution.
Data set [3] relates to isolated heart. Briefly: Experiment 2-1 Activity on isolated heart. More on the design: species or system Japanese white rabbit. The conditions noted are these: for activation at 3 µg/heart / inhibition at 3 µg/heart, 3 µg/heart / inhibition at 3 µg/heart: Oryctolagus cuniculus, 3 μg/heart; for activation at 3 µg/heart: read-out: Increase of coronary perfusion; for inhibition at 3 µg/heart, 3 µg/heart: read-out: Inhibitory rate of systole; for inhibition at 3 µg/heart: read-out: Reducing rate of heart pulse. A digest of the protocol: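 Isolated heart preparation from Japanese white rabbits (2.2–2.5 kg) anaesthetised with nembutal 20 mg/kg i.v. Compound was given after 90 min of stabilisation. Perfusion volume was measured by drop counting, and heart rate and contractility via a force-displacement transducer.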

Data set [4] concerns Spontaneously hypertensive male rats. Put plainly: Experiment 1-1 Hypotensive activity (oral, conscious spontaneously hypertensive rats). Format: in vivo, rat. The note with it: for Maximum hypotension: mean blood pressure; for hypotensive activity (in words): Table 4, comparison with nifedipine and nicardipine hydrochloride where stated.
Data set [5] relates to isolated heart. Put plainly: Experiment 2-2 Activity onto the isolated heart (with duration). Also on record: species or system Japanese white rabbit. The conditions noted are these: 3 μg/heart. The procedure: Japanese white rabbit (weighing 2.2-2.5 kg) was anesthetized by introvenous injection of nembutal (20 mg/kg) and then sacrificed by bleeding from common carotid artery. […] There were measured the perfusion volume with a drop-counting meter (ET-600G type, manufactured by Nippon Koden K.K.) and the heart pulse and the contractility via a force-displacement transducer (FD pick up, SB-IT type, manufactured by Nippon Koden K.K.) (for measuring heart pulse, an instant pulse meter (AT-601G type, minufactured by Nippon Koden K.K.) being further used).
The test compounds were dissolved in ethanol, and the solution was diluted in 100-fold with purified water, and the diluted solution was administered in an amount of 0.1 ml/heart (i.e. 3 μg/heart).
The activity was measured in the same manner as described in Experiment 2-1 except that in some test compounds, the dose was in 1 μg/heart. Besides, the duration of the activity was evaluated by counting the time until the coronary perfusion volume became to the initial level before the administration of the test compound.

Data set [6] concerns Spontaneously hypertensive male rats. Put plainly: Experiment 1-2 Hypotensive activity (oral, 8 hours). It counts as in vivo, rat. Here is the method:
Spontaneously hypertensive male rats (13-15 week age, one group: 3 rats) were used. […] The rats were fixed in a Howlman cage without fasting, and the femoral arterial pressure was measured by a direct method without anesthesia with a cannula which was previously inserted into the femoral artery of the animal, via a pressure transducer (MPU-0.5, manufactured by Nippon Koden K.K.). The test compounds were orally administered in the form of a suspension in 0.5% methyl cellulose solution in a dose of 10 mg/kg (in some compounds, 3 mg/kg). In the control group, only 0.5% methyl cellulose solution was administered likewise. The blood pressure was measured for 5 hours after the administration of test compounds.
The hypotensive activity was measured in the same manner as described in Experiment 1-1 except that the rats were used in 3-5 rats per each group, and the test compounds were administered in a dose of 1 mg/kg (some compounds, 3 mg/kg), and the blood pressure was measured for 8 hours after the administration of test compounds.

Data set [7] is described as follows: Experiment 4-2 Acute toxicity, rats. The conditions noted are these: rat, in vivo, po, 4 week age, 7 days. The text has this:
(§1) Wistar male and female rats (4 week age) and ddy male and female mice (4 week age) were used. The compounds of Example Nos. 82 and 83 were each orally administered to […].

A short description of data set [8]: Experiment 4-2 Acute toxicity, mice. The note with it: mouse, in vivo, po, 4 week age, 7 days.
Description: as §1

Entries after “also recorded” stand apart in the source; their conditions may differ. Where only a bound is given, the exact number is not on record here.

On to `CCCCCCCCOC(=O)C1=C(C)NC(C)=C(C(=O)NC(C)C)C1c1ccccc1[N+](=O)[O-]` (centres unmarked) [Example 2, n-octyl 2,6-dimethyl-3-isopropylaminocarbonyl-4-(o-nitrophenyl)-1,4-dihydropyridine-5-carboxylate], for which, in data set [1], the EC50 was 300 nM and the “relaxing / vasodilating activity on isolated aorta (in words)” value (“relaxing / vasodilating activity” for short) is “somewhat weak vasodilating activity”. Also, the 50% lethal dose (LD50) at 168 h in data set [2] fell in the range of 10 to 100 mg/kg. Further, in data set [3], the activation at 3 µg/heart came out at 17%; the inhibition at 3 µg/heart, 3 µg/heart is 50%; the inhibition at 3 µg/heart is 25%. Moreover, the “inhibitions on the heart pulse and contactility (in words)” value in data set [3] (Table 6) was “moderate inhibitions on the heart pulse and contactility”. In data set [4] (3 mg/kg oral), the Recovering time was more than 5.0 h, the “Time for recovering 1/2 of max. hypotension” value (shortened to “Time … of max. hypotension”) was 5.0 h, the “Time until reaching to max. hypotension” value turned out to be 30 min and the Maximum hypotension is given as 55 mmHg. For the same molecule, the “hypotensive activity (in words)” value in data set [4] is “the same or more potent activity with longer duration; also recorded: potent hypotensive activity”.
Regarding `CCCCCCCCCOC(=O)C1=C(C)NC(C)=C(C(=O)NC(C)C)C1c1ccccc1[N+](=O)[O-]` (centres unmarked) [Example 3, n-nonyl 2,6-dimethyl-3-isopropylaminocarbonyl-4-(o-nitrophenyl)-1,4-dihydropyridine-5-carboxylate], in data set [1], the EC50 worked out at 180 nM. In data set [2], the 50% lethal dose (LD50) at 168 h was in the range of 500 to 1000 mg/kg. In data set [3], the activation at 3 µg/heart amounted to 40%; the inhibition at 3 µg/heart, 3 µg/heart is 55%; the inhibition at 3 µg/heart was found to be 20%. Further, in data set [4] (3 mg/kg oral), the Recovering time was more than 5.0 h, the “Time … of max. hypotension” value was more than 5.0 h, the “Time until reaching to max. hypotension” value is 30 min and the Maximum hypotension stood at 60 mmHg. Further, in data set [4] (10 mg/kg oral), the Recovering time was more than 5.0 h, the “Time … of max. hypotension” value was more than 5.0 h, the “Time until reaching to max. hypotension” value turned out to be 30 min and the Maximum hypotension is listed as 91 mmHg.
Take `CCCCCCOC(=O)C1=C(C)NC(C)=C(C(=O)NC(C)C)C1c1ccccc1[N+](=O)[O-]` (centres unmarked) [Example 7, n-hexyl 2,6-dimethyl-3-isopropylaminocarbonyl-4-(o-nitrophenyl)-1,4-dihydropyridine-5-carboxylate]: in data set [1], the EC50 came out at 130 nM and the “relaxing / vasodilating activity” value is given as “somewhat weak vasodilating activity”. Also, the LD50 at 168 h in data set [2] is more than 1000 mg/kg. Besides, in data set [3], the activation at 3 µg/heart amounted to 45%; the inhibition at 3 µg/heart, 3 µg/heart worked out at 30%; the inhibition at 3 µg/heart stood at 25%. Besides, in data set [3] (Table 6), the “inhibitions on the heart pulse and contactility (in words)” value was “moderate inhibitions on the heart pulse and contactility”. Moreover, the “coronary vasodilating activity (in words)” value in data set [3] (Table 6, comparison with nifedipine and nicardipine hydrochloride, etc.) was “the same or more potent coronary vasodilating activity with longer duration”. In data set [4] (10 mg/kg oral), the Recovering time is more than 5.0 h, the “Time … of max. hypotension” value was found to be 5.0 h, the “Time until reaching to max. hypotension” value came to 30 min and the Maximum hypotension was found to be 45 mmHg. For the same molecule, the “hypotensive activity (in words)” value in data set [4] is “the same or more potent activity with longer duration; also recorded: potent hypotensive activity”.
With `CCCCCCCCOC(=O)C1=C(C)NC(C)=C(C(=O)NC2CC2)C1c1ccccc1[N+](=O)[O-]` (centres unmarked) [Example 82, n-octyl 2,6-dimethyl-3-cyclopropylaminocarbonyl-4-(o-nitrophenyl)-1,4-dihydropyridine-5-carboxylate], in data set [1], the EC50 came to 440 nM and the “relaxing / vasodilating activity” value is recorded as “somewhat weak vasodilating activity”. Also, the “Coronary perfusion Duration” value in data set [5] (time until perfusion volume returned to initial level) was more than 120 min. Also, the activation at 3 µg/heart in data set [5] (Oryctolagus cuniculus, read-out: Coronary perfusion Increase) was found to be 39%. In addition, in data set [5] (Oryctolagus cuniculus, read-out: Inhibitory rate of systole), the inhibition at 3 µg/heart turned out to be 30%. Further, the inhibition at 3 µg/heart in data set [5] (Oryctolagus cuniculus, read-out: Reducing rate of heart pulse) was 25%. For the same molecule, in data set [6] (1 mg/kg oral), the Maximum hypotension was found to be 48 mmHg, the Recovering time is more than 8.0 h, the “Time … of max. hypotension” value was more than 8.0 h and the “Time until reaching to max. hypotension” value stood at 180 min. In data set [6] (Table 5, comparison with nifedipine and nicardipine hydrochloride where stated), the “hypotensive activity (in words)” value is listed as “the same or more potent hypotensive activity with longer duration; also recorded: potent hypotensive activity”. The LD50 at 168 h in data set [7] (female rats) was found to be 50 mg/kg. Moreover, the 50% lethal dose (LD50) at 168 h in data set [7] (male rats) was 320 mg/kg. Besides, in data set [8] (female mice), the median lethal dose (LD50) at 168 h came out at 1140 mg/kg. In addition, the 50% lethal dose (LD50) at 168 h in data set [8] (male mice) amounted to 1280 mg/kg.

The term LD50 denotes the dose expected to kill half of the subjects tested.

The values are drawn from US4874773A, “3-Aminocarbonyl-1,4-dihydropyridine-5-carboxylic acid compounds, and pharmaceutical composition containing the same” (priority 1985, dated 1989).
